Reference: patent publication US9441018B2, “Gene from tidal flat metagenome and a novel protein displaying both phospholipase and lipase activities” (KOREA RESEARCH INSTITUTE OF BIOSCIENCE AND BIOTECHNOLOGY, priority 2011, dated 2016)
“And” between values parts separate entries of the source, which are not always exact repeats. Equal values may be shown once. Read-outs that look alike come from different tables or passages of the source.

What was measured:
[1] = test system: phospholipase/lipase MPIaG; format: biochemical, tidal flat metagenome
[2] = test system: phospholipase/lipase MPIaG
Method: Particularly, enzyme activity was measured by the following two methods. […] The second method was spectrophotometric assay as standard method of the present invention. […] The increasing rate of para-nitrophenol hydrolyzed from the substrate was continuously measured at OD405. Unless informed otherwise, p-nitrophenyl caprate (C10) was used as a substrate. 1 unit (U) of enzyme was defined as the enzyme amount capable of producing 1 μmol of para-nitrophenol via hydrolysis.

Compound | Enzyme activity relative value (%) ([1]; additive 1 mM) | Enzyme activity relative value (%) ([1]; additive 5 mM) | Enzyme activity relative value (%) ([1]; additive 10 mM) | Enzyme activity relative value (%) ([2]; organic solvent 20%) | Enzyme activity relative value (%) ([2]; organic solvent 30%) | Enzyme activity relative value (%) ([2]; organic solvent 50%) | Enzyme activity relative value (%) ([2]; organic solvent 60%) | other results
O=S(=O)(F)Cc1ccccc1 [PMSF, phenyl methyl sulfonyl fluoride] | 94 | 107 | 105 | – | – | – | – | –
CC(C)O [2-propanol] | – | – | – | 101 | 97 | 96 | 99 | –
[Cl-].[Cl-].[Mg+2] [MgCl2] | 105 | 198 | 142 | – | – | – | – | –
CCO [Ethanol] | – | – | – | 100 | 95 | 94 | 98 | –
[Cl][Cu][Cl] [CuCl2] | 135 | 32 | 11 | – | – | – | – | –
[Cl][Ni][Cl] [NiCl2] | 62 | 23 | 7 | – | – | – | – | –
O=C(O)CN(CCN(CC(=O)O)CC(=O)O)CC(=O)O [EDTA, ethylenediaminetetraacetic acid] | – | – | – | – | – | – | – | effect on enzyme activities (in words) [1]: strongly inhibited
[Ca+2].[Cl-].[Cl-] [CaCl2] | 466 | 1015 | 994 | – | – | – | – | increase of enzyme activities [1]: approximately 10 times
O=S(=O)([O-])[O-].[Fe+2] [FeSO4] | 137 | 142 | 151 | – | – | – | – | –
CN(C)C=O [DMF, dimethylformamide] | – | – | – | 99 | 100 | 93 | 98 | –
CC(C)=O [Acetone] | – | – | – | 96 | 100 | 96 | 99 | –
C[S+](C)[O-] [DMSO, dimethyl sulfoxide] | – | – | – | 98 | 97 | 98 | 81 | –
[Cl-].[Cl-].[Zn+2] [ZnCl2] | 107 | 9 | 5 | – | – | – | – | –
CC#N [Acetonitrile] | – | – | – | 100 | 99 | 98 | 99 | –
OCCS [2-mercaptoethanol] | 105 | 108 | 80 | – | – | – | – | –
O[C@H](CS)[C@H](O)CS (racemic) [DTT, dithiothreitol] | 93 | 107 | 105 | – | – | – | – | –
[Cl-].[Cl-].[Co+2] [CoCl2] | – | – | – | – | – | – | – | Enzyme activity relative value (%) [1]: 120% and 177% and 116%
CO [Methanol] | – | – | – | 100 | 101 | 93 | 98 | –
